Source: PMC4592935, “Application of Molecular Modeling to Development of New Factor Xa Inhibitors” (BioMed Research International, 2015)

Experiments:
Human factor Xa = biological target: T1, Human factor Xa (Homo sapiens, UniProt P00742); assay: Inhibition of factor Xa hydrolysis of chromogenic substrate S2765 in buffer; assay type: biochemical; conditions: for IC50 / Inhibition of hydrolysis rate specific to the factor Xa substrate in the buffer system IC50: substrate S2765 250 μM, Xa 0.5 nM, 20 mM HEPES pH 8.0; for IC50: read-out: Inhibition of hydrolysis rate specific to the factor Xa substrate in the buffer system IC50; for inhibitory activity against factor Xa (in words): in vitro, chromogenic substrate hydrolysis
T1 construct: It consists of light (139 residues) and heavy (303 residues) chains linked by a disulfide bridge; purchased Hematologic Technologies Inc. (USA)
T1 sequence (P00742 235-488 limits assumed): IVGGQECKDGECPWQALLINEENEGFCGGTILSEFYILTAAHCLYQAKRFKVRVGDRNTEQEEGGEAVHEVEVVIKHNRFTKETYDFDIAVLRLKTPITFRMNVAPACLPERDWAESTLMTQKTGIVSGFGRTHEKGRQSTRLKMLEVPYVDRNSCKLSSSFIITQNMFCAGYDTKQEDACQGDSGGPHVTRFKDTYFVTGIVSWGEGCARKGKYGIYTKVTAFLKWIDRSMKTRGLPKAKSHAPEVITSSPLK
T1 sequence (P00742 41-179 partner limits assumed): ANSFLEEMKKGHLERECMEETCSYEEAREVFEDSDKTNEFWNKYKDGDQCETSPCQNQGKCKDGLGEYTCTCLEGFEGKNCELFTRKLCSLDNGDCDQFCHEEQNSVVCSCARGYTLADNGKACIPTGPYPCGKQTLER
Description: Human factor Xa was obtained from Hematologic Technologies Inc. (USA). The Xa-specific chromogenic substrate S2765 (Z-D-Arg-Gly-Arg-pNA·2HCl) was purchased from Chromogenix (USA). All other chemicals were of reagent and analytical grade.
The kinetics of factor Xa inhibition was determined from the hydrolysis reaction of a specific substrate by the enzyme in the presence of tested substances. The chromogenic substrate S2765 (Z-D-Arg-Gly-Arg-pNA·2HCl, Chromogenix, Instrumentation Laboratory Company, Lexington, MA 02421, USA) was used for registering accumulation of p-nitroaniline as a colored product by spectrophotometer.
Plate wells were filled with 20 mM HEPES (pH 8.0) containing 140 mM NaCl and 0.1% polyethylene glycol (molecular weight 6000 Da). Thereafter, the substrate was sequentially added to each well (final concentration, 250 μM), followed by the substance being tested (to a final concentration that was varied) and Xa (final concentration, 0.5 nM). The hydrolysis rate was monitored spectrophotometrically at 405 nm (absorption maximum of the reaction product p-nitroaniline).
The initial rate was determined as the slope of the linear part of the kinetic curve over the first 10 to 20 min of measurement. The inhibitory effect was expressed as the percentage of reduction of the initial hydrolysis rate. The reaction rate in the absence of any inhibitor was taken as 100%. Each result is the mean of two parallel determinations. The inhibitor concentration was determined decreasing hydrolysis rate to 50% (IC50). […] Graphs of optical density against time were plotted.

[1] = Solubility as observed during factor Xa testing; assay type: physicochemical; conditions: limited the inhibition that could be achieved
From the text: According to the results of our molecular modeling with SOL and DISCORE programs 17 compounds have been selected and investigated in the frame of in vitro experiments.

Compound | IC50 (Human factor Xa) [µM] | further results
CC1(c2ccc(Cl)cc2)CC(C)(C)N(C(=O)CSc2ccc(Cl)cc2)c2ccccc21 (stereo not drawn) [VGY-0016013] | 19 | 
CC1CC2(CCCC2)N2C(=O)C3(NCCc4c3[nH]c3ccccc43)c3cc(F)cc1c32 (stereo not drawn) [VGY-0041455] | 40 | 
COc1ccc(C2CC(=O)c3cnc(Nc4nc(C)c5cc(C)c(C)cc5n4)nc3C2)cc1 (stereo not drawn) [VGY-0035262, 7-(4-methoxyphenyl)-2-[(4,6,7-trimethylquinazolin-2-yl)amino]-7,8-dihydroquinazolin-5(6H)-one] | 3.1 | 
Cc1ccc(C)c(N2C(=O)CC(N3CCN(Cc4ccc5c(c4)OCO5)CC3)C2=O)c1 (stereo not drawn) [VGY-0015091] |  | inhibitory activity against factor Xa (in words) (Human factor Xa): did not show any inhibitory activity; Inhibition of hydrolysis rate specific to the factor Xa substrate in the buffer system IC50 (Human factor Xa): Not inhibited
Cc1ccc2nc(Nc3nc(-c4cnc(N5CCCCC5)nc4C)cc(=O)[nH]3)nc(C)c2c1 [VGY-0163641] | 12 | 
CCOc1ccc(N2CN(CCCN3CCOCC3)Cn3c2nc(C)c(C)c3=O)cc1 [VGY-0160076] |  | inhibitory activity against factor Xa (in words) (Human factor Xa): did not show any inhibitory activity; Inhibition of hydrolysis rate specific to the factor Xa substrate in the buffer system IC50 (Human factor Xa): Not inhibited
O=C1CC(c2ccco2)Cc2nc(N3CCN(Cc4ccc5c(c4)OCO5)CC3)ncc21 (stereo not drawn) [VGY-0038035] |  | inhibition at 51 µM (Human factor Xa; at concentration of 51 μM): 34%; inhibitory activity against factor Xa (in words) (Human factor Xa): weakly inhibited; Inhibition of hydrolysis rate specific to the factor Xa substrate in the buffer system IC50 (Human factor Xa): Weakly inhibited; solubility (in words) [1]: poor solubility
CC1(c2ccc(Cl)cc2)CC(C)(C)N2C(=O)/C(=N/c3ccc(Oc4ccccc4)cc3)c3cccc1c32 (stereo not drawn) [VGY-0027889] | 20.6 | 
Cc1nc(N2CCN(C)CC2)[nH]c(=O)c1Cc1ccc(C(C)C)cc1 [VGY-0039772] |  | inhibitory activity against factor Xa (in words) (Human factor Xa): did not show any inhibitory activity; Inhibition of hydrolysis rate specific to the factor Xa substrate in the buffer system IC50 (Human factor Xa): Not inhibited
Cc1cc2nc(Nc3ncc4c(n3)CC(c3cccs3)CC4=O)nc(C)c2cc1C (stereo not drawn) [VGY-0037900] | 10 | 
COc1cccc(NC(=O)c2nnc3c(-c4ccc(Br)cc4)c(C)nn3c2C)c1 [VGY-0101011, 8-(4-bromophenyl)-N-(3-methoxyphenyl)-4,7-dimethylpyrazolo[5,1-c][1,2,4]triazine-3-carboxamide] | 2 | 
6-[(1,3-benzothiazol-2-ylthio)methyl]-2-[(5,6-dimethylquinazolin-2-yl)amino]pyrimidin-4(3H)-one [VGY-0006889] | 2.3 | 
CN1CCN(C2CC(=O)N(c3ccc(Oc4ccccc4)cc3)C2=O)CC1 (stereo not drawn) [VGY-0017263] |  | inhibitory activity against factor Xa (in words) (Human factor Xa): did not show any inhibitory activity; Inhibition of hydrolysis rate specific to the factor Xa substrate in the buffer system IC50 (Human factor Xa): Not inhibited
COc1cc2c3c(c1)-c1c(sn(-c4ccc(Oc5ccc(Cl)cc5)cc4)c1=S)C(C)(C)N3C(=O)C2=O [VGY-0018521] | 6.3 | 
Clc1ccc2nc(Nc3nc(-c4ccccc4)c4ccccc4n3)nc(-c3ccccc3)c2c1 [VGY-0018863] | 10 | 
O=C1CC(c2cccc(Cl)c2)Cc2nc(N3CCN(Cc4ccc5c(c4)OCO5)CC3)ncc21 (stereo not drawn) [VGY-0037972] | 5 | 
CC1=CC(C)(C)N2C(=O)C(=C3SC(=S)NC3=O)c3cc(OC(=O)C=Cc4cccc([N+](=O)[O-])c4)cc1c32 [VGY-0018989, 4,4,6-trimethyl-2-oxo-1-(4-oxo-2-thioxo-1,3-thiazolidin-5-ylidene)-1,2-dihydro-4H-pyrrolo[3,2,1-ij]quinolin-8-yl-3-(3-nitrophenyl)prop-2-enoate] | 1.8 | 
